Like-named read-outs stand apart in the source and are kept apart here.
Tests used:
Assay in all cases: biochemical
Design in all cases: Eurofins KinaseProfiler full panel at Km ATP, residual kinase activity (%) relative to DMSO
[1] = molecular target: T1, IGF-1R(h), activated (Homo sapiens, UniProt P08069)
T1 construct: gene IGF1R
How it was run: (§1)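 Radiometric kinase activity assays were run with ATP at Km and compounds at 10 µM, and remaining activity (%) was reported. A separate competitive binding screen measured DNA-tagged kinase displaced from immobilized active-site ligands by qPCR, giving percent kinase still bound at 10 µM compound in DMSO.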

[2] = molecular target: T2, PKD2(h) (Homo sapiens, UniProt Q9BZL6)
T2 construct: gene PRKD2
T2 sequence (Q9BZL6 1-878): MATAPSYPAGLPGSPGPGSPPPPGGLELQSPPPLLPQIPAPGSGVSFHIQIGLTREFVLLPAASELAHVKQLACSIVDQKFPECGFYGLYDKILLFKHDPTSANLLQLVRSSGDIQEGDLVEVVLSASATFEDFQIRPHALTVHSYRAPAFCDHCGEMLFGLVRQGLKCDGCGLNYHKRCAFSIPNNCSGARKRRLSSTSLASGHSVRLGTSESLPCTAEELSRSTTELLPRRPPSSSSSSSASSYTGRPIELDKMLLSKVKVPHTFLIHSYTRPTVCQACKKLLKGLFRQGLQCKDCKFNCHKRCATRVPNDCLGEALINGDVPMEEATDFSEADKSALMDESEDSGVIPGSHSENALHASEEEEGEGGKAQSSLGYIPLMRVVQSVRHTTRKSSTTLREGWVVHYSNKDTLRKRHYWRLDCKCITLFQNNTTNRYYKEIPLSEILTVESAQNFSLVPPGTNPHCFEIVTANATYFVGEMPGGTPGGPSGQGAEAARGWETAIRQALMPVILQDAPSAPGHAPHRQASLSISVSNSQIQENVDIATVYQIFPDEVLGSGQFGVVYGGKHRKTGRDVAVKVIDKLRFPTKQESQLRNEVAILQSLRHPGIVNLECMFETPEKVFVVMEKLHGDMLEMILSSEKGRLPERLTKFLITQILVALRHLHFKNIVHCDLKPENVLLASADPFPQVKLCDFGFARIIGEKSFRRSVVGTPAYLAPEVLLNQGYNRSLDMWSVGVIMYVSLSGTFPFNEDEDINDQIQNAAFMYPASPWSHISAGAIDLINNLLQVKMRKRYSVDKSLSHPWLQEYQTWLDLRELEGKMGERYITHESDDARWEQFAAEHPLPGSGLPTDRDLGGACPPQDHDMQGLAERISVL
How it was run: as §1

[3] = molecular target: T3, ROCK-I(h) (Homo sapiens, UniProt Q13464)
T3 construct: gene ROCK1
T3 sequence (Q13464 whole entry): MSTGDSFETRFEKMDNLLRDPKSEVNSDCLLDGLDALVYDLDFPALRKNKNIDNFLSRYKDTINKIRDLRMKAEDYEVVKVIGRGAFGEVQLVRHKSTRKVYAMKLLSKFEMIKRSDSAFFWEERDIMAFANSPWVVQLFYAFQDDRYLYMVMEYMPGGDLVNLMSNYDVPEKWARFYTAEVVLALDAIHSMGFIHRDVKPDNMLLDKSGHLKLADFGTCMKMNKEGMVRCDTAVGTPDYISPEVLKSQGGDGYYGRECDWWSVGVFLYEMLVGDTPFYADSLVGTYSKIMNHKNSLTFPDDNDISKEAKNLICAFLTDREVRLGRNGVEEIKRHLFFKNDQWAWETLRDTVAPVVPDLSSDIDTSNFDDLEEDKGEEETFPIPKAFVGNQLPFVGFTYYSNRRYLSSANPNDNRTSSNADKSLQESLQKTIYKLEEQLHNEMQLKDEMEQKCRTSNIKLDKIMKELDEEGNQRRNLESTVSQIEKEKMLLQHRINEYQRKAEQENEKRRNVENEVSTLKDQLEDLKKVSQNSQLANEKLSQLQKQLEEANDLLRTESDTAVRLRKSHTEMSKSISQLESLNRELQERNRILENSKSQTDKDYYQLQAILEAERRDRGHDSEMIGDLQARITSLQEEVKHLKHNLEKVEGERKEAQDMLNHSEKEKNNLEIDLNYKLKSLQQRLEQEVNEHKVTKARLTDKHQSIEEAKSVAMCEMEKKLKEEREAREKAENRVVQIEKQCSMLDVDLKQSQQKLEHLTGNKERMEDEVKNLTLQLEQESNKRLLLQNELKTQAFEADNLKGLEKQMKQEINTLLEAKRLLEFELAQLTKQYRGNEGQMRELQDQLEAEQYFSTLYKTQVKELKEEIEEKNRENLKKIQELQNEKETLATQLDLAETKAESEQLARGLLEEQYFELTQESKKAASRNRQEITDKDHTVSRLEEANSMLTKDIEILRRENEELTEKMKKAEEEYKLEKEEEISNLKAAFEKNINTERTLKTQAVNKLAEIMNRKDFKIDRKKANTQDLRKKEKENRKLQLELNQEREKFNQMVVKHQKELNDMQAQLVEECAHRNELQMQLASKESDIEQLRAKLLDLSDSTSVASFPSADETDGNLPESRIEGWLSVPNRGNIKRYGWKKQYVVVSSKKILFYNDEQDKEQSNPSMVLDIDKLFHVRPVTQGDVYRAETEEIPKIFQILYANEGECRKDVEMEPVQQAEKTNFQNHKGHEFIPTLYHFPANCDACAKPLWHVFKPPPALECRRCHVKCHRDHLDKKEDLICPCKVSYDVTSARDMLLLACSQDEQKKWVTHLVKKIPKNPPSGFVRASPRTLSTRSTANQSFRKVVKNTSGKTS
How it was run: as §1

[4] = molecular target: T4, MST1(h) (Homo sapiens, UniProt Q13043)
T4 construct: gene STK4
T4 sequence (Q13043 1-487): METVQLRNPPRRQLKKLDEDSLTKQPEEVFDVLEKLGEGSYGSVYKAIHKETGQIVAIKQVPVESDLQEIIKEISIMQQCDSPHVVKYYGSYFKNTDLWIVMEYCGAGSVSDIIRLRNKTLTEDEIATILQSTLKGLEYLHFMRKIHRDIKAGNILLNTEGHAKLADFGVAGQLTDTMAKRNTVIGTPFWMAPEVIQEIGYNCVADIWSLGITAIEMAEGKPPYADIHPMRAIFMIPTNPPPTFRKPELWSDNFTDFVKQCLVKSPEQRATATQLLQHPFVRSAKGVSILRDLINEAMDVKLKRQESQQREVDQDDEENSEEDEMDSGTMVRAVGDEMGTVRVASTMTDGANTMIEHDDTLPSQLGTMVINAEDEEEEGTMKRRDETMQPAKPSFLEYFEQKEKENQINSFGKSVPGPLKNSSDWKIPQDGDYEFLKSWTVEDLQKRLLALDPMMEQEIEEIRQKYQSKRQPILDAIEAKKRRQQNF
How it was run: as §1

[5] = molecular target: T5, PI3 Kinase (p110b/p85a)(h) (Homo sapiens, UniProt P42338)
T5 construct: gene PIK3CB
T5 sequence (P42338 whole entry): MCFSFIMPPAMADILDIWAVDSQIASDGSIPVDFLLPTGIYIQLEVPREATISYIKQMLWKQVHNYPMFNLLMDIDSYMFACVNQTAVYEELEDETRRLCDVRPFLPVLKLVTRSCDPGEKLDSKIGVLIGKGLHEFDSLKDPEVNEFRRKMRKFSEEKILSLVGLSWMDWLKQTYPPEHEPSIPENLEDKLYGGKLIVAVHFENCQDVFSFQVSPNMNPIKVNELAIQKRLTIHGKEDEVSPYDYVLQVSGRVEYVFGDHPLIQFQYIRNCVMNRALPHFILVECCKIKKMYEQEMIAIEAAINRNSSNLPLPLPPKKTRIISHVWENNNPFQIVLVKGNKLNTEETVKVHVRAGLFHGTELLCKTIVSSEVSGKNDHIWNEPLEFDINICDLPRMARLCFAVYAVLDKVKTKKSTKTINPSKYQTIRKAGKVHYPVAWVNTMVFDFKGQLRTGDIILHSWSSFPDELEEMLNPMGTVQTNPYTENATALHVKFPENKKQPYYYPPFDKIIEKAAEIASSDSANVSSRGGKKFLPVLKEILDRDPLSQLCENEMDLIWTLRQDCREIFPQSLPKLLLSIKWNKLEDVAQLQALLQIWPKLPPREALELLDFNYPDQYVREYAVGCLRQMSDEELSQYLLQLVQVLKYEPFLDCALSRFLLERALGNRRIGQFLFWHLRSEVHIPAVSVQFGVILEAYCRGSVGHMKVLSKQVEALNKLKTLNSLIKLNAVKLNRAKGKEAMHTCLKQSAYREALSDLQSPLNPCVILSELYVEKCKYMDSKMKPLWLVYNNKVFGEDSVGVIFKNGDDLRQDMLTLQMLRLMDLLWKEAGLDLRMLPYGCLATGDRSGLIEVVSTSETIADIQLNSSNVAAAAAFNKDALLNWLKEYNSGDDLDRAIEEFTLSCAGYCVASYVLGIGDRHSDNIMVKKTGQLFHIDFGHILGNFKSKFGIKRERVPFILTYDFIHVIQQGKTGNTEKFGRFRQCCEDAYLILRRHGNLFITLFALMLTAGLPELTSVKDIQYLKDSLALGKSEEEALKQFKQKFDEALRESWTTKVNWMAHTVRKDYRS
T5 sequence (P27986 whole entry partner): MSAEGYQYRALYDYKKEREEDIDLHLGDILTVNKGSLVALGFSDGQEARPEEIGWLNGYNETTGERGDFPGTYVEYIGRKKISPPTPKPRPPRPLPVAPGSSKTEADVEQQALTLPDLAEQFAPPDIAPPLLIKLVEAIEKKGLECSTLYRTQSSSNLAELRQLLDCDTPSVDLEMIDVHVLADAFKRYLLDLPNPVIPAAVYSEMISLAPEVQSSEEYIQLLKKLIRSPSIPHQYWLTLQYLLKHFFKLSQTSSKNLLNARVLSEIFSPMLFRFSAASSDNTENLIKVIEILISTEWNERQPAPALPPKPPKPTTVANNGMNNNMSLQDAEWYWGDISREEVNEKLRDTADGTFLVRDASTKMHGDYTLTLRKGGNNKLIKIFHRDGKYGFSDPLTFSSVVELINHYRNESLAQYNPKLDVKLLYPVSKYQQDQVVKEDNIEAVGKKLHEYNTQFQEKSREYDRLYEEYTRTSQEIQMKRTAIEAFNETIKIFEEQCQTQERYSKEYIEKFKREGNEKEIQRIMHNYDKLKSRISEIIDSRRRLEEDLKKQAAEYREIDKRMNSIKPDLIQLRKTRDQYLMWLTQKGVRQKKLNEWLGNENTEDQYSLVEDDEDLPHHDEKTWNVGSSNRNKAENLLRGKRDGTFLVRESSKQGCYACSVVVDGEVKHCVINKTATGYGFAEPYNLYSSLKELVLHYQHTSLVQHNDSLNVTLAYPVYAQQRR
How it was run: as §1

[6] = read-out: Residual activity (%) Spautin-1 5aa
[7] = read-out: Residual activity (%) 5as
[8] = read-out: Residual activity (%) 5at
[9] = read-out: Residual activity (%) 5ay

T1 sequence (P08069 whole entry): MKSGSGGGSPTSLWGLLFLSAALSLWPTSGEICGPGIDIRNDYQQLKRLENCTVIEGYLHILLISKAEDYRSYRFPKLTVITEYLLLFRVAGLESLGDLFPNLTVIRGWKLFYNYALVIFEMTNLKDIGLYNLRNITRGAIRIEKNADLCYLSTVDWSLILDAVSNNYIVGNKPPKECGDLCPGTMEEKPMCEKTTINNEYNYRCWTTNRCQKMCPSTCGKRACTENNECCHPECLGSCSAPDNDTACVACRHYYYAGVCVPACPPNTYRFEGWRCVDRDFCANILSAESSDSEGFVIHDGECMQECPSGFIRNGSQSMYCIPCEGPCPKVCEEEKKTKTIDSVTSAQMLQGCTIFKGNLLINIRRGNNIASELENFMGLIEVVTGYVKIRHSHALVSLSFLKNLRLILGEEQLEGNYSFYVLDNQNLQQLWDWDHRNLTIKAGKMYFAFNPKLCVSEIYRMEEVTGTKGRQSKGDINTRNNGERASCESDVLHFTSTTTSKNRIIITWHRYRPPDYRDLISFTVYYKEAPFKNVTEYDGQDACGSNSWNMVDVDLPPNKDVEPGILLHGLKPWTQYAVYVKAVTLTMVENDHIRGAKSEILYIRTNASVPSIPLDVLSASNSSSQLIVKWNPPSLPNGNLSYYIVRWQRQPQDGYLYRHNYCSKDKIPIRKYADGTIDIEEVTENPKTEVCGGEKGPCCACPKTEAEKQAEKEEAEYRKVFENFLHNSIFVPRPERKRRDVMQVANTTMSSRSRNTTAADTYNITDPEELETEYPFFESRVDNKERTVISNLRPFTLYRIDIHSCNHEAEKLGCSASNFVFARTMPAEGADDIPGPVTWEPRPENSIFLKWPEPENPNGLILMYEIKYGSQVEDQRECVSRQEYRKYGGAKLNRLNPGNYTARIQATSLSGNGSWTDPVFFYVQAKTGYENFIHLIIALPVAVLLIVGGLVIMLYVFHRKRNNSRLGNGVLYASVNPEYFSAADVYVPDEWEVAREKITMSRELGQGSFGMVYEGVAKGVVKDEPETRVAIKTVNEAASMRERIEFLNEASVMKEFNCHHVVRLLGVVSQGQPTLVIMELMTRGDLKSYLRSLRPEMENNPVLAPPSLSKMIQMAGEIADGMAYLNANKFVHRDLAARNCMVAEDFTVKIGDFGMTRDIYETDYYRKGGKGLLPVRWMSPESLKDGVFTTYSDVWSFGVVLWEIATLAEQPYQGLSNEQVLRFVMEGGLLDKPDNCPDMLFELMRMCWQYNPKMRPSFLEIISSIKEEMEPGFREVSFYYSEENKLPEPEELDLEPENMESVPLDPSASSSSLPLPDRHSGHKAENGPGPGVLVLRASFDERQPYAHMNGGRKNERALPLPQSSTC

`Fc1ccc(CNc2ncnc3ccc(F)cc23)cc1` [5aa, 6-Fluoro-N-(4-fluorobenzyl)-4-Quinazolinamine] was tested, and the remaining activity at 10 µM [1, 6] was 78%, the remaining activity at 10 µM [2, 6] was 106% and the remaining activity at 10 µM [3, 6] was 91%. It also gave a remaining activity at 10 µM [4, 6] of 91% and a remaining activity at 10 µM [5, 6] of 102%.

Work on `Fc1ccc(CCNc2ncnc3ccc(F)cc23)cc1` [5as, 6-Fluoro-N-[2-(4-Fluorophenyl)Ethyl]-4-Quinazolinamine] yielded a remaining activity at 10 µM [1, 7] of 72%, a remaining activity at 10 µM [2, 7] of 74% and a remaining activity at 10 µM [3, 7] of 98%. The remaining activity at 10 µM [4, 7] was 78% and the remaining activity at 10 µM [5, 7] was 99%.

With `Fc1ccc2ncnc(NCCc3ccc(Cl)cc3)c2c1` [5at, N-[2-(4-Chlorophenyl)Ethyl]-6-Fluoro-4-Quinazolinamine] the remaining activity at 10 µM [1, 8] was 76%, the remaining activity at 10 µM [2, 8] was 76% and the remaining activity at 10 µM [3, 8] was 93%. For the same compound, the remaining activity at 10 µM [4, 8] was 97% and the remaining activity at 10 µM [5, 8] was 93%.

For `COc1ccc2ncnc(Nc3cccc(F)c3)c2c1` [5ay, N-(3-Fluorophenyl)-6-Methoxy-4-Quinazolinamine], the remaining activity at 10 µM [1, 9] was 73%, the remaining activity at 10 µM [2, 9] was 77% and the remaining activity at 10 µM [3, 9] was 96%. For the same compound, the remaining activity at 10 µM [4, 9] was 70% and the remaining activity at 10 µM [5, 9] was 103%.

Source: article PMC7827406, “Structure–Activity Relationship (SAR) Study of Spautin-1 to Entail the Discovery of Novel NEK4 Inhibitors” (International Journal of Molecular Sciences, 2021)
